In US4567197A, “1,3-Dioxan-5-ylalkenoic acids” (Imperial Chemical Industries PLC, priority 1982, dated 1986):

Assays:
[1] = test system: hypertensive effects of the TXA2 mimetic U46619; assay: antagonism of the hypertensive effect of U46619 in anaesthetised rats; type: in vivo, rat (Alderley Park strain); details: for period of significant reduction of the hypertensive effects of U46619: oral administration, dose not stated
Description: Male rats (Alderley Park strain) are anaesthetised with sodium pentabarbital and blood pressure is monitored at the carotid artery. The TXA2 mimetic agent known as U46619 (e.g. R. L. Jones, et alia, in "Chemistry, Biochemistry and Pharmacological Activity of Prostanoids" eds. S. M. Roberts and F. Scheinmann, at p.211; Pergamon Press, 1979) is administered intravenously via the jugular vein and an ED50 (dose necessary to produce 50% of the maximum hypertensive effect) is established (n=3). The ED50 for U46619 is approximately 5 μg/kg. A test compound is then administered either intravenously via the jugular vein or orally via a cannula directly into the stomach and the animal challenged with an ED50 dose of U46619, five minutes after dosing with test compound and then successively every ten minutes until the hypertensive effect of U46619 is no longer blocked.

[2] = test system: rabbit aortal strip; assay: rabbit aortal strip test (a), TXA2 as agonist
Description: (§1) As stated earlier, the compounds of formula I are antagonists of one or more of the actions of TXA2, for example certain of its actions on blood platelets, the vasculature and/or the lung.
(a) The standard rabbit aortal strip model devised by Piper and Vane (Nature, 1969, 223, 29-35) using as agonist a freshly prepared sample of TXA2, generated by addition of arachidonic acid (25 μg. to citrated, platelet rich rabbit plasma (250 μl. ) and allowing the mixture to aggregate fully over 90 seconds before use;

[3] = test system: citrated, platelet rich human plasma; assay: blood platelet aggregation test (b), induced by arachidonic acid; type: cell-based; details: aggregation induced by sub-maximal arachidonic acid (25-100 μg/ml.)
Description: as §1
(b) a standard blood platelet aggregation test based on that described by Born (Nature, 1962, 194, 927-929) and involving measuring the inhibition by a test compound of aggregation of citrated, platelet rich human plasma induced by a sub-maximal concentration (in the range 25-100 μg/ml.) of arachidonic acid; and […]

[4] = test system: bronchoconstriction induced in the Konzett-Rossler guinea-pig model; assay: bronchoconstriction test (c), Konzett-Rossler guinea-pig model, induced by U46619; type: in vivo; details: 5 mg./kg. i.v., U46619 1-1.5 μg/kg i.v.
Excerpt: as §1
(c) a standard bronchoconstriction test involving measuring the inhibition by a test compound of the bronchoconstriction induced in the Konzett-Rossler guinea-pig model (as modified by Collier and James, Brit. J. Pharmacol., 1967, 30, 283-307) by intravenous administration of the TXA2 mimetic agent, U46619 at 1-1.5 μg/kg.

`CCC1(CC)OC[C@@H](C/C=C\CCCC(=O)O)[C@@H](c2ccccc2)O1` (relative stereo) [Compound 1, 5(Z)-7-(2,2-diethyl-4-phenyl-1,3-dioxan-cis-5-yl)heptenoic acid] was tested, and the “period of significant reduction of the hypertensive effects of U46619” value [1] was “at least 60 minutes”.
For `O=C(O)CCC/C=C\C[C@@H]1COC2(CCCCC2)O[C@@H]1c1ccccc1` (relative stereo) [Compound 2, 5(Z)-7-(4'-phenyl-[cyclohexanespiro-2'-1,3-dioxan]-cis-5'-yl)heptenoic acid], the “period of significant reduction of the hypertensive effects of U46619” value [1] was “at least 60 minutes”.
With `CC1(C)OC[C@@H](C/C=C\CCCC(=O)O)[C@@H](c2cccc(F)c2)O1` (relative stereo) [Compound 3] the “period of significant reduction of the hypertensive effects of U46619” value [1] was “at least 60 minutes”.
For `COc1ccccc1[C@H]1OC(C)(C)OC[C@H]1C/C=C\CCCC(=O)O` (relative stereo) [Compound 5, 5(Z)-7-[2,2-dimethyl-4-(2-methoxyphenyl)-1,3-dioxan-cis-5-yl]heptenoic acid], the “period of significant reduction of the hypertensive effects of U46619” value [1] was “at least 60 minutes”.
`O=C(O)CCC/C=C\C[C@@H]1CO[C@H](c2ccccc2Cl)O[C@@H]1c1ccccc1` (relative stereo) [Compound 11] was tested, and the “period of significant reduction of the hypertensive effects of U46619” value [1] was “at least 60 minutes”.
With `O=C(O)CCC/C=C\C[C@@H]1CO[C@H](c2ccc(Cl)cc2)O[C@@H]1c1ccccc1` (relative stereo) [Compound 13] the “period of significant reduction of the hypertensive effects of U46619” value [1] was “at least 60 minutes”.
With `CC(C)[C@H]1OC[C@@H](C/C=C\CCCC(=O)O)[C@@H](c2ccccc2)O1` (relative stereo) [Compound 20] the “period of significant reduction of the hypertensive effects of U46619” value [1] was “at least 60 minutes”.
For `O=C(O)CCC/C=C\C[C@@H]1CO[C@H](c2ccc3c(c2)OCO3)O[C@@H]1c1ccccc1` (relative stereo) [Compound 21], the “period of significant reduction of the hypertensive effects of U46619” value [1] was “at least 60 minutes”.
With `C[C@H]1OC[C@@H](C/C=C\CCCC(=O)O)[C@@H](c2ccccc2)O1` (relative stereo) [Compound 23, 5(Z)-7-([2,4,5-cis]-2-methyl-4-phenyl-1,3-dioxan-5-yl)heptenoic acid] the “period of significant reduction of the hypertensive effects of U46619” value [1] was “at least 60 minutes”.
In the case of `Cc1ccccc1[C@H]1OC(C)(C)OC[C@H]1C/C=C\CCCC(=O)O` (relative stereo) [Compound 24, 5(Z)-7-[2,2-dimethyl-4-(2-methylphenyl)-1,3-dioxan-cis-5-yl]heptenoic acid], the “period of significant reduction of the hypertensive effects of U46619” value [1] is reported as “at least 60 minutes”.
For `CC1(C)OC[C@@H](C/C=C\CCCC(=O)O)[C@@H](c2ccccc2)O1` (relative stereo) [Example 1, 5(Z)-7-(2,2-dimethyl-4-phenyl-1,3-dioxan-cis-5-yl)heptenoic acid], the pA2 [2] was 6.28, the IC50 [3] was ~67 µM and the reduction of bronchoconstriction [4] was 90%.
`CCC1(CC)OC[C@@H](C/C=C\CCCC(=O)O)[C@@H](c2ccccc2)O1` (single isomer, unassigned) [Example 100, (-)-5(Z)-(2,2-diethyl-4-phenyl-1,3-dioxan-cis-5-yl)heptenoic acid] was tested, and the “period of significant reduction (>30%) of the hypertensive effects of U46619” value ([1]; oral, 50 mg./kg.) was 120 min and the “reduction of the hypertensive effects of U46619” value ([1]; oral, 50 mg./kg., for a period of 120 minutes) was > 30%.
In the case of `CCCCC[C@H](O)/C=C/[C@@H]1[C@@H](C/C=C\CCCC(=O)O)[C@H]2CO[C@@H]1C2` [Example U46619, reference compound], the ED50 ([1]; Rattus norvegicus, intravenous via jugular vein, n=3, read-out: ED50 (dose necessary to produce 50% of the maximum hypertensive effect)) is reported as ~5 µg/kg.
